Test results taken from publication PMC8065974 (Biomedicines, 2021).
Where two headings read alike, the source gives them in different places.

What was measured:
Format in all cases: in vivo, mice (C57BL/6J)
[1] = test system: unilateral ureteral obstruction (UUO) mouse model; assay: Curative treatment in UUO-induced tubulointerstitial fibrosis: immunohistochemistry and Sirius red histology; settings: curative: 25 mg/kg daily gavage from day 3 after UUO for 5 days; vs UUO + vehicle; n = 7
Experimental: The unilateral ureteral ligation was performed as previously described. Briefly, under oxygen-isoflurane anesthesia and through a longitudinal, left abdominal incision, the ureter was exposed and ligated with a 6/0 nylon thread at the uretero-pelvic junction. In sham operations, the ureter was exposed but not ligated and repositioned. To reduce pain Buprenorphine (0.01 mg/kg) (Buprecare […], France) was injected i.p before surgery and 12 h later. […] A. borbonica polyphenol extract (25 mg/kg) or CA (25 mg/kg) were resuspended in distilled water just before gavage. The control group received only the vehicle (distilled water). At the end of the different protocols, mice were sacrificed and the kidneys were removed, and a transverse section was fixed in Carnoy's solution for 24 h and subsequently embedded in paraffin for immuno-histological analysis. Several pieces of renal cortex were snap-frozen in liquid nitrogen and stored at -80 °C for mRNA, enzyme activities and MS/MS analysis. Kidneys were fixed in Carnoy's solution, dehydrated and embedded in paraffin. From kidney sections, routine histology and immunohistological staining and analysis were performed as previously described. Three to four μm thickness sections were cut and used for routine staining (hematoxylin-eosin and Sirius red staining) and immunohistochemistry. […] For immunohistochemistry, mouse renal tissue was first de-waxed in toluene and rehydrated through a series of graded ethanol washes before incubation with 3% hydrogen peroxide for 10 min at room temperature to block endogenous peroxidase activity. […] The sections were subsequently stained with the Dako Envision system ([…] (primary antibodies from mouse) and K4002 (primary antibodies from rabbit)) according to manufacturer's instruction. Sections were finally counterstained with hematoxylin. Negative controls for the immunohistochemical procedures included substitution of the primary antibody with nonimmune sera at a similar immunoglobin concentration. […]

[2] = test system: mRNA of inflammatory, fibrotic and antioxidant genes in obstructed kidney; assay: Curative treatment in UUO: RT-qPCR of obstructed kidney; settings: curative: 25 mg/kg daily gavage from day 3 after UUO for 5 days
Experimental: The unilateral ureteral ligation was performed as previously described. Briefly, under oxygen-isoflurane anesthesia and through a longitudinal, left abdominal incision, the ureter was exposed and ligated with a 6/0 nylon thread at the uretero-pelvic junction. In sham operations, the ureter was exposed but not ligated and repositioned. To reduce pain Buprenorphine (0.01 mg/kg) (Buprecare […], France) was injected i.p before surgery and 12 h later. […] A. borbonica polyphenol extract (25 mg/kg) or CA (25 mg/kg) were resuspended in distilled water just before gavage. The control group received only the vehicle (distilled water). At the end of the different protocols, mice were sacrificed and the kidneys were removed, and a transverse section was fixed in Carnoy's solution for 24 h and subsequently embedded in paraffin for immuno-histological analysis. Several pieces of renal cortex were snap-frozen in liquid nitrogen and stored at -80 °C for mRNA, enzyme activities and MS/MS analysis. Total RNA was isolated from mouse kidneys with TRIzol^TM reagent (Invitrogen). […] The quantitative real-time polymerase chain reaction was performed in a 96 well plate using SYBR green^TM master mix (Eurogentec). Analysis of GAPDH was performed to normalize gene expression and the relative mRNA fold changes between groups were calculated using the 2^-^ΔΔ^Ct method.

[3] = test system: Mn-SOD, Cu/Zn-SOD, GPX, CAT activities in obstructed kidney; assay: Curative treatment in UUO: antioxidant enzyme activities in kidney tissue; settings: curative: 25 mg/kg, 5 days; vs UUO + vehicle
Experimental: After centrifugation (5000× g[…], for 10 min), the supernatant was used for protein quantification and enzymatic assays. The total protein level of lysate was quantified by the bicinchoninic acid assay (BCA). SOD activity was assayed by monitoring the rate of acetylated cytochrome c reduction by superoxide radicals generated by the xanthine/xanthine oxidase system. Measurements were performed in a reagent buffer (xanthine oxidase, xanthine (0.5 mM), cytochrome c (0.2 mM), KH2PO4 (50 mM), EDTA (2 mM), pH 7.8) at 25 °C. The specific MnSOD activities were determined in the same conditions after incubation of samples with NaCN (1 mM) which inhibits Cu/ZnSOD activities. Assays were monitored by spectrophotometry at 560 nm. SOD activities were calculated using a calibration standard curve of SOD (up to 6 unit/mg). Total SOD, MnSOD and resulting Cu/ZnSOD activities were expressed as international catalytic units per mg of proteins. The total activity of glutathione peroxidase (GPX) was determined with cumene hydroperoxide as substrate. The rate of glutathione oxidized by cumene hydroperoxide (6.5 mM) was evaluated by the decrease in NADPH (0.12 mM in Tris buffer) at 340 nm in the presence of NaCN (10 mM), reduced glutathione (0.25 mM) and glutathione reductase (1 U/mL) in Tris buffer (50 mM, pH 8). GPX activity was expressed as international units per gram of proteins. The catalase (CAT) activity assay was carried out on 40 µg of protein lysate in 25 mM Tris–HCl (pH 7.5). Blanks were measured at 240 nm just before adding 80 µL of H2O2 (10 mM final) to start the reaction. Catalase activity was determined by measuring the absorbance at 240 nm and was calculated using a calibration standard curve of an increasing amount of catalase between 12.5 and 125 unit/mL. Catalase activity was expressed as international catalytic units per mg of proteins.

[4] = test system: protein carbonyl in obstructed kidney; assay: Curative treatment in UUO: protein carbonylation (carbonyl ELISA); settings: curative: 25 mg/kg, 5 days; vs UUO + vehicle
Experimental: The protein carbonylation was determined as described previously by the carbonyl ELISA assay based on the recognition of protein-bound DNPH in carbonylated proteins with an anti-DNP antibody.

[5] = Biodistribution of caffeic acid and ferulic acid after A. borbonica extract (UPLC-MS); settings: for concentration at 24 h: C57BL/6J, mouse, oral, 25 mg/kg; for Concentration in urine: urine collected overnight
Experimental: Polyphenolic extract from A. borbonica was prepared by dissolving 1 g of crushed leaves in 25 mL of an aqueous acetonic solution (70%, v/v). After incubation at 4 °C for 90 min, the mixture was centrifuged at 3500× g […] at 4 °C for 20 min and polyphenol-rich supernatant was collected and stored at −80 °C until analysis. Identification of polyphenols was carried out by ultra-high-performance liquid chromatography (UHPLC) coupled with diode array detection and a HESI-Orbitrap mass spectrometer (Q Exactive Plus, Thermo Fisher). A 10 µL sample volume was injected using an UHPLC system equipped with a Thermo Fisher Ultimate 3000 series WPS-3000 RS autosampler and then separated on a PFP column (2.6 μm, 100 mm × 2.1 mm, Phenomenex, Torrance, CA, USA). The column was eluted with a gradient mixture of 0.1% formic acid in water (A) and 0.1% formic acid in acetonitrile (B) at the flow rate of 0.450 mL/min, with 5% B at 0.00 to 0.1 min, 35% B at 0.1 to 7.1 min, 95% B at 7.2 to 7.9 min and 5% B at 8.0 to 10 min. The column temperature was held at 30 °C and the detection wavelengths were set to 280 and 310 nm.
For mass spectrometer conditions, a Heated Electrospray Ionization source II (HESI II) was used. Nitrogen was used as drying gas. The mass spectrometric conditions were optimized as follows: spray voltage = 2.8 kV, capillary temperature = 350 °C, sheath gas flow rate = 60 units, aux gas flow rate = 20 units and S lens RF level = 50. Mass spectra were registered in full scan mode from m/z 100 to 1500 in negative ion mode at a resolving power of 70,000 FWHM at m/z 400. The automatic gain control (AGC) was set at 1e6. The MS/MS spectra were obtained by applying a relatively higher energy collisional dissociation (HCD) energy of 25%.
For biodistribution study, one day before sacrifice animals were placed in metabolic cages to collect urine overnight. CA and its metabolites were measured by UPLC-MS/MS in liver and kidney tissues and urine.

[6] = Plasma and kidney pharmacokinetics after a single oral dose of CA in UUO mice; settings: single oral dose of CA 25 mg/kg, 3 days-UUO mice; for Cmax: n = 3/time, read-out: Cmax (peak plasma concentration)
Experimental: For pharmacokinetics study, the animals were submitted to UUO and 3 days later they were fasted overnight and then treated with a single dose of CA (25 mg/kg) or vehicle (n = 3/group). Blood samples (90 µL) were collected at time 0 (before treatment), 30 min, 60 min, 180 min and 360 min post-treatment. CA concentrations were measured by UPLC-HESI-Q-orbitrap (Q Exactive Plus).
To this end, three days after UUO, mice were administrated by oral route a unique dose of CA (25 mg/kg) and then were sacrificed at 30, 60, 180 and 360 min.

[7] = DESI-HR/MS imaging of obstructed kidney; settings: 1 h post oral administration of CA 25 mg/kg, UUO mice
Experimental: The 2D automated Omni Spray Kidney tissues were flash-frozen in nitrogen and stored at −80 °C before DESI-HR/MS imaging. For DESI-MS imaging and histology, 12 μm thickness kidney sections were collected and mounted on SuperFrost™ Plus glass slides.
The 2D automated Omni Spray ion source from Prosolia Inc. (Indianapolis, IN, USA) coupled to a Q-Exactive™ Plus mass spectrometer (Thermo Fisher Scientific, Bremen, Germany) was used to perform the mass spectrometry imaging experiment. A solution of methanol with 0.1% formic acid (HPLC-MS grade, Carlo Erba) was used as the extraction and ionization spray solvent, delivered by a syringe pump at a flow rate of 5 μL/min. All imaging experiments were carried out with the following experimental conditions including source parameters: 2.8 kV capillary voltage, 250 °C capillary temperature, 60% S-lens RF level and 86 psi nitrogen nebulizing gas pressure, and including geometrical parameters: ∼1 mm spray tip-to-surface distance and a spray incident angle of 60°. Mass spectra were registered in full scan mode with the mass spectrometer operating in negative mode. Survey full scan mass spectra were acquired in the 50 to 500 m/z range at resolving power 70,000 (at m/z 400) with an automatic gain control (AGC) target of 3^6 and maximum injection time of 200 ms. […]

[8] = liver, read-out: Concentration in liver
[9] = UUO mice after ingestion of 25 mg/kg A. borbonica extract (gavage), n = 7, mean ± SD
[10] = C57BL/6J, mouse, contralateral kidney, read-out: AUC (0-360) in contralateral kidney (converted)
[11] = C57BL/6J, mouse, contralateral kidney, read-out: concentration in contralateral kidney one hour after CA administration
[12] = C57BL/6J, mouse, obstructed kidney, read-out: AUC (0-360) in obstructed kidney (converted)
[13] = C57BL/6J, mouse, obstructed kidney, read-out: concentration in obstructed kidney one hour after CA administration
[14] = C57BL/6J, mouse, plasma, 0 to 360 min, read-out: AUC (0-360) in plasma (converted)

Row | Compound | concentration at 24 h [5, 8] [µM] | Concentration in urine [5, 9] [µM] | AUC(0-t) [6, 10] [µM·h] | concentration at 1 h [6, 11] [µM] | AUC(0-t) [6, 12] [µM·h] | concentration at 1 h [6, 13] [µM] | AUC(0-t) [6, 14] [µM·h] | Cmax ([6]; C57BL/6J, mouse, plasma) [µM] | tmax ([6]; plasma) | other results
1 | O=C(O)/C=C/c1ccc(O)c(O)c1 [Caffeic acid, caffeic acid] | 0.037 ± 0.001 | 96.599 ± 19.704 | 1.67 | 0.3 ± 0.1 | 14.7 | 5.3 ± 1.1 | 82.7 | 50.5 | 30 min | extracellular matrix accumulation / renal tubulointerstitial fibrosis (Sirius red staining) [1]: significant protective effect; macrophage infiltration (F4/80 immunostaining) [1]: significant protective effect; myofibroblast appearance/accumulation (α-SMA immunostaining) [1]: significant protective effect; Nrf2 mRNA expression [2]: significant increase; UUO-induced mRNA expression of inflammatory and fibrotic genes (Tgf-β, Tnf-α, Nf-κB, Mcp1, Fn, Col I, Col III) ([2]; vs UUO + vehicle): downregulated; CAT enzyme activity in obstructed kidney [3]: significantly increased; Cu/Zn-SOD enzyme activity in obstructed kidney [3]: significantly increased; GPX enzyme activity in obstructed kidney [3]: not significantly different; UUO-induced increase in protein carbonyl level in obstructed kidney [4]: slight decrease in carbonyl level which did not reach statistical significance; concentration at 24 h ([5]; obstructed kidney, read-out: Concentration in obstructed kidney): 0.144 ± 0.013 µM; Concentration in obstructed kidney ([5]; UUO mice after ingestion of 25 mg/kg A. borbonica extract (gavage), 24 h after administration, n = 7, mean ± SD): 0.144 ± 0.013 µM; Concentration in urine ([5]; UUO mice after ingestion of 25 mg/kg A. borbonica extract (gavage), n = 7, mean ± SD, listed as CA): 96.599 ± 19.704 µM; tmax ([6]; C57BL/6J, mouse, plasma, po, 25 mg/kg, plasma, read-out: tmax): ≤ 30 min; bioavailability ([6]; C57BL/6J, mouse, plasma, read-out: Bioavailability F): 0.4%
2 | COc1cc(/C=C/C(=O)O)ccc1O [Ferulic acid, ferulic acid] | 0.426 ± 0.099 | 38.002 ± 5.021 | 1.64 | 0.4 ± 0.1 | 17.9 | 4.5 ± 0.8 | 77.5 | 68.3 ± 8.3 | same tmax as CA | Concentration in urine ([5]; UUO mice after ingestion of 25 mg/kg A. borbonica extract (gavage), n = 7, mean ± SD, listed as FA): 38.002 ± 5.021 µM; spatial distribution in obstructed kidney (DESI-HR/MS imaging) [7]: in the renal cortex
